Reference: US4215049A, “Antitumorigenic lactone derivative” (Nippon Kayaku Kabushiki Kaisha, priority 1977, dated 1980)
In brackets after ≈: the same amount, converted by molar mass.

Key:
HeLa S3 cells = test: Inhibitory effect against growth of HeLa S3 cells (in vitro); format: cell-based; settings: for IC50: 72 h, HeLa S3 cells, read-out: ID50 (the source's name); for inhibitory effect against growth of cancer (HeLa) cells (in words): low concentration
Experimental: The roots (0.3 kg by half-dry weight), stalks (1.6 kg by half-dry weight) and leaves (2.1 kg by half-dry weight) were ground and extracted respectively with methanol. Each liquid extract was filtered and the filtrate was concentrated under reduced pressure to obtain an oily residue containing the object compounds.
(Note) The inhibitory effect against growth of the HeLa cells was determined in the manner described below.
The HeLa S3 cells were spread on 6 cm-diameter plastic laboratory plates in the amount of 0.7×10^5 cells/plate and cultured by using an MEM medium containing 60 μg/ml of kanamycin and 10% calf serum. 2 days later, the medium was replaced with one containing the compounds of this invention. The cell population at that time was 1.58×10^5 cells/plat. After addition of the compounds, the cells were cultured for three days, and then, after removing the medium, the culture was washed with a physiological saline solution, treated with 0.05% trypsin at room temperature for about 15 minutes, and then pipetted and dispersed. The number of surviving cells was counted by a […], and percent inhibition was measured by counting the number of the living cells in the control section to determine ID50. [formula]

[1] = system: Ehrlich ascites cancer cells; test: Life-prolonging effect for mice suffering from Ehrlich ascites cancer; format: in vivo, mice (ICR/JCL); settings: for Life prolongation rate: average survival days, control group indexed as 100; for life-prolonging effect for mice with Ehrlich ascites cancer (in words): in comparison with the control mice
Experimental: The mice of ICR/JCL species (.male., 5-week-old, 5 mice per group) were intraperitoneally inoculated with 2,000,000 pieces of Ehrlich ascites cancer cells, and the compounds of this invention were administered, starting 2 hours after inoculation, in the dosages shown in Table 5 below once a day for a total period of 10 days.
the drug treated groups as calculated with the average number of survival
days of the control group being indexed as 100.

[2] = 7.50 mg/kg once a day for 10 days
[3] = 15.0 mg/kg once a day for 10 days

SMILES	IC50 (HeLa S3 cells; Homo sapiens, 3 days)	inhibition at 1 µg/mL (HeLa S3 cells; Homo sapiens, HeLa S3, 72 h, 1 μg/ml, 3 days, read-out: Percent inhibition)	inhibition at 2 µg/mL (HeLa S3 cells; Homo sapiens, HeLa S3, 72 h, 2 μg/ml, 3 days, read-out: Percent inhibition)	inhibition at 4 µg/mL (HeLa S3 cells; Homo sapiens, HeLa S3, 72 h, 4 μg/ml, 3 days, read-out: Percent inhibition)	inhibitory effect against growth of cancer (HeLa) cells (in words) (HeLa S3 cells)	Life prolongation rate [1, 2]	Life prolongation rate [1, 3]	life-prolonging effect for mice with Ehrlich ascites cancer (in words) [1]	inhibition at 0.375 µg/mL (HeLa S3 cells; Homo sapiens, HeLa S3, 72 h, 0.375 μg/ml, 3 days, read-out: Percent inhibition)	inhibition at 0.75 µg/mL (HeLa S3 cells; Homo sapiens, HeLa S3, 72 h, 0.75 μg/ml, 3 days, read-out: Percent inhibition)	inhibition at 1.5 µg/mL (HeLa S3 cells; Homo sapiens, HeLa S3, 72 h, 1.5 μg/ml, 3 days, read-out: Percent inhibition)	effect of compound III compared with compounds I and II (in words) ([1]; mouse, in vivo)
C=C1C(=O)OC2C=C(C)C(OC(C)=O)CC=C(C)CC(OC(=O)C(=CCO)CO)C12 (stereo not shown) [Compound I]	1.4 µg/mL (≈ 3.33 µM)	29.4%	74.9%	100%	high inhibitory effect against growth of the cancer cells	253	232	prominent life-prolonging effect	–	–	–	–
C=C1C(=O)OC2C=C(C)C(OC(C)=O)CC=C(C)CC(OC(=O)C(C)=CCO)C12 (stereo not shown) [II]	0.62 µg/mL (≈ 1.53 µM)	–	–	–	high inhibitory effect against growth of the cancer cells	159	173	prominent life-prolonging effect	28.4%	57%	100%	–
C=C1C(=O)OC2C=C(C)C(OC(C)=O)CC=C(C)CC(O)C12 (stereo not shown) [III]	–	–	–	–	–	95	108	–	–	–	–	not so conspicuous in effect as the compounds I and II
